# Key:
# Test in all cases: radiometric filter-binding kinase assay
# ABL1 (human) = ABL1 (human) (UniProt P00519)
# BRSK1 (human) = BRSK1 (human) (UniProt Q8TDC3)
# CAMKK2 (human) = CAMKK2 (human) (UniProt Q96RR4)
# CHEK2 (human) = CHEK2 (human) (UniProt O96017)
# EIF2AK3 (human) = EIF2AK3 (human) (UniProt Q9NZJ5)
# EPHB2 (human) = EPHB2 (human) (UniProt P29323)
# ERBB4 (human) = ERBB4 (human) (UniProt Q15303)
# GSK3B (human) = GSK3B (human) (UniProt P49841)
# IRAK1 (human) = IRAK1 (human) (UniProt P51617)
# Chain of IRAK1 (human) (P51617 whole entry, looked up): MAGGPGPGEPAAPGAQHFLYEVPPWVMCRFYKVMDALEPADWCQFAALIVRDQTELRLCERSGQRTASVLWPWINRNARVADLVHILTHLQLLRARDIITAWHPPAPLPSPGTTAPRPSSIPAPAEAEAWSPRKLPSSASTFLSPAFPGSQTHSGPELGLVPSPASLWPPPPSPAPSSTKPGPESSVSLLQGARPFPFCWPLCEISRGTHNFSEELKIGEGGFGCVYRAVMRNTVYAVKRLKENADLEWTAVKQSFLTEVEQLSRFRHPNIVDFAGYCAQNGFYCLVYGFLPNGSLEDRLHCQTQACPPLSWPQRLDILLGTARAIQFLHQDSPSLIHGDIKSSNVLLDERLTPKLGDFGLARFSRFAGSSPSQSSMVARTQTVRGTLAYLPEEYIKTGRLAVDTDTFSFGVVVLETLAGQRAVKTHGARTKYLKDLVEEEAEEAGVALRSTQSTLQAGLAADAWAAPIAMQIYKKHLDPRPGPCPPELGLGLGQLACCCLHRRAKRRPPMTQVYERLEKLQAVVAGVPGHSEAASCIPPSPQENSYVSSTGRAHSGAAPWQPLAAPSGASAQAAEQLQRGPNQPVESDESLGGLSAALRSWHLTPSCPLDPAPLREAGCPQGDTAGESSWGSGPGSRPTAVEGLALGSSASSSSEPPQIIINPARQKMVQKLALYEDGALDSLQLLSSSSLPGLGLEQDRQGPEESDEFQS
# LCK (mouse) = details: accession and sequence are those of the human protein
# MAP2K1 (human) = MAP2K1 (human) (UniProt Q02750)
# Chain of MAP2K1 (human) (Q02750 whole entry, looked up): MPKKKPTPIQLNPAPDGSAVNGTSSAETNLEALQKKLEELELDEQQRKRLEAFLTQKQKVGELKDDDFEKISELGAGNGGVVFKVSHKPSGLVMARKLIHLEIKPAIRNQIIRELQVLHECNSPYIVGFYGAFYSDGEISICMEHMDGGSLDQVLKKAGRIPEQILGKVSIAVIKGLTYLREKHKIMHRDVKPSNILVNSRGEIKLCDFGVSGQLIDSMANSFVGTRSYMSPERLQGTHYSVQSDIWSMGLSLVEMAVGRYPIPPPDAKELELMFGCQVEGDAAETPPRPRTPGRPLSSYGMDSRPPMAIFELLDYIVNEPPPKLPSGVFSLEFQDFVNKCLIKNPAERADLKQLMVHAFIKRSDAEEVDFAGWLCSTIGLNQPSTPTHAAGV
# MAP4K3 (human) = MAP4K3 (human) (UniProt Q8IVH8); details: compound 1.0 µM
# MAP4K5 (human) = MAP4K5 (human) (UniProt Q9Y4K4)
# Chain of MAP4K5 (human) (Q9Y4K4 whole entry, looked up): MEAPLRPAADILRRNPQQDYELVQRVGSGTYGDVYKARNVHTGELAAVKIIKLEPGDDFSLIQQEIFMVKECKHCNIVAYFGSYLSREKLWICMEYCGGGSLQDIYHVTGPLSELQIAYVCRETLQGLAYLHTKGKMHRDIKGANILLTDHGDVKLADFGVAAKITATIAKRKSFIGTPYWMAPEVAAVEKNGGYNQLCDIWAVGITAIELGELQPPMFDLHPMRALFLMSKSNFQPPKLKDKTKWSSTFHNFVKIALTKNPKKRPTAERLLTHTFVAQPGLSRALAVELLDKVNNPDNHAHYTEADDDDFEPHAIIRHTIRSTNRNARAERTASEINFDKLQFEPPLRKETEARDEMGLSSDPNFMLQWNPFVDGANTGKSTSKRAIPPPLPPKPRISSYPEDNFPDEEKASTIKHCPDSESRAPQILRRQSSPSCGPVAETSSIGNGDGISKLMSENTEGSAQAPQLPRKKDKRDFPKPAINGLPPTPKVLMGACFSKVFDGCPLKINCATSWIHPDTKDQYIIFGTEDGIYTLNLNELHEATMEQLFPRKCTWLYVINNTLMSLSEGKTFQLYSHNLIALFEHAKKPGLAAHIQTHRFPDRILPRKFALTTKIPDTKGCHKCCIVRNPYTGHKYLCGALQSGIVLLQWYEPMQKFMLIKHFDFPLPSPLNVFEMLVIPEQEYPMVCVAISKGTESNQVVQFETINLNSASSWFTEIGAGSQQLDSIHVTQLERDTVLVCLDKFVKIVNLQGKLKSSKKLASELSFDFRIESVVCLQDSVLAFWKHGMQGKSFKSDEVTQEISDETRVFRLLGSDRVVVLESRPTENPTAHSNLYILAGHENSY
# MAPK1 (human) = MAPK1 (human) (UniProt P28482)
# Chain of MAPK1 (human) (P28482 whole entry, looked up): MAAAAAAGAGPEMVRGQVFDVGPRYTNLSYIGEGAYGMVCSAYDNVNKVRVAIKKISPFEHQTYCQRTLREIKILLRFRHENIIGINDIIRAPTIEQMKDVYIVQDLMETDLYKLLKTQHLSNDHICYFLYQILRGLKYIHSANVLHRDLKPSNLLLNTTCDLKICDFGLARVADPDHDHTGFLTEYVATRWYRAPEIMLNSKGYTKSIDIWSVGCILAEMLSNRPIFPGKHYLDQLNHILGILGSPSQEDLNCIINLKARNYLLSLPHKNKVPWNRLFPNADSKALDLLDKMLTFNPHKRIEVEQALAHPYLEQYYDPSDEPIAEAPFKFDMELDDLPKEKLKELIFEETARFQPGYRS
# MAPK8 (human) = MAPK8 (human) (UniProt P45983)
# MAPKAPK5 (human) = MAPKAPK5 (human) (UniProt Q8IW41)
# MARK4 (human) = MARK4 (human) (UniProt Q96L34)
# MST4 (human) = MST4 (human) (UniProt Q9P289)
# [1] = test system: PAK2 (human), Q13177 [T402E]
# PHKG1 (human) = PHKG1 (human) (UniProt Q16816)
# PIM1 (human) = PIM1 (human) (UniProt P11309)
# Chain of PIM1 (human) (P11309 whole entry, looked up): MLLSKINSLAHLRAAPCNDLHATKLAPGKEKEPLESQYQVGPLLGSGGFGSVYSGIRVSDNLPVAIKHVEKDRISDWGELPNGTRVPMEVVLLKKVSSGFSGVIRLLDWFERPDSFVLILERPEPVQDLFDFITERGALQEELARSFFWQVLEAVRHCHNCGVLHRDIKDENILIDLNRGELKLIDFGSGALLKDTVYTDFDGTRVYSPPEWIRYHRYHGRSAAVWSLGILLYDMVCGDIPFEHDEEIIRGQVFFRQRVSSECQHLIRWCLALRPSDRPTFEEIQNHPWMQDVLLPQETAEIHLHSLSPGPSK
# PIM2 (human) = PIM2 (human) (UniProt Q9P1W9)
# Chain of PIM2 (human) (Q9P1W9 whole entry, looked up): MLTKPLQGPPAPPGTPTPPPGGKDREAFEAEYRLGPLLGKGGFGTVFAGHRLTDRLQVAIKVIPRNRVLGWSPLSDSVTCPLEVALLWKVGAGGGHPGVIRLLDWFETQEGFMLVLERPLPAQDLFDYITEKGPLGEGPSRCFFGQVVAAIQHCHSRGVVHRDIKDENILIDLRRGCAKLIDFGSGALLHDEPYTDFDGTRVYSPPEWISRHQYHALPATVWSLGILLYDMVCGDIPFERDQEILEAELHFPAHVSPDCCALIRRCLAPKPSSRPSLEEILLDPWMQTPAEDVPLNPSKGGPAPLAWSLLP
# PRKAA1 or PRKAA2 (rat) = details: compound 1.0 µM; accession and sequence are those of the human protein
# RPS6KA1 KD1 KD2 (human) = RPS6KA1 KD1 KD2 (human) (UniProt Q15418)
# Chain of RPS6KA1 KD1 KD2 (human) (Q15418 whole entry, looked up): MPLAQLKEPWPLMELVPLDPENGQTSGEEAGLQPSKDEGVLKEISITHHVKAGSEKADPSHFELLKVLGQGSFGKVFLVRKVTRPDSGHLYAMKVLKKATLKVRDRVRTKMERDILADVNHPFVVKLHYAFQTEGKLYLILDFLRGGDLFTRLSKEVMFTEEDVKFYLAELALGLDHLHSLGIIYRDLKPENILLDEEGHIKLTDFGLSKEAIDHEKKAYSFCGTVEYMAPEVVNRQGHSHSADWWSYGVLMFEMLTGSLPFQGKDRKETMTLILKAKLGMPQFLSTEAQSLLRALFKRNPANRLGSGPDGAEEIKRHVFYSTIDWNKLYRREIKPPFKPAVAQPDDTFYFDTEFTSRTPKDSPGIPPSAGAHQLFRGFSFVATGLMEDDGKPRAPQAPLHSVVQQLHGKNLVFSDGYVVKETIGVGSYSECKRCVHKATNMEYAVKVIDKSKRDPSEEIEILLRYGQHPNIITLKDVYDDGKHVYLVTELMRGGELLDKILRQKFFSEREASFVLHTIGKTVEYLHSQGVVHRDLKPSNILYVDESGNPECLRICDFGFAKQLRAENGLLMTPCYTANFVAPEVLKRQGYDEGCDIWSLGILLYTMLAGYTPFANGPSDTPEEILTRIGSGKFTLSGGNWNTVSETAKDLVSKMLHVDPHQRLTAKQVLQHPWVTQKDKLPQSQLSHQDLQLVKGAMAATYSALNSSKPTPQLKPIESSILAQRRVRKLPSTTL
# RPS6KA3 KD1 KD2 (human) = RPS6KA3 KD1 KD2 (human) (UniProt P51812)
# Chain of RPS6KA3 KD1 KD2 (human) (P51812 whole entry, looked up): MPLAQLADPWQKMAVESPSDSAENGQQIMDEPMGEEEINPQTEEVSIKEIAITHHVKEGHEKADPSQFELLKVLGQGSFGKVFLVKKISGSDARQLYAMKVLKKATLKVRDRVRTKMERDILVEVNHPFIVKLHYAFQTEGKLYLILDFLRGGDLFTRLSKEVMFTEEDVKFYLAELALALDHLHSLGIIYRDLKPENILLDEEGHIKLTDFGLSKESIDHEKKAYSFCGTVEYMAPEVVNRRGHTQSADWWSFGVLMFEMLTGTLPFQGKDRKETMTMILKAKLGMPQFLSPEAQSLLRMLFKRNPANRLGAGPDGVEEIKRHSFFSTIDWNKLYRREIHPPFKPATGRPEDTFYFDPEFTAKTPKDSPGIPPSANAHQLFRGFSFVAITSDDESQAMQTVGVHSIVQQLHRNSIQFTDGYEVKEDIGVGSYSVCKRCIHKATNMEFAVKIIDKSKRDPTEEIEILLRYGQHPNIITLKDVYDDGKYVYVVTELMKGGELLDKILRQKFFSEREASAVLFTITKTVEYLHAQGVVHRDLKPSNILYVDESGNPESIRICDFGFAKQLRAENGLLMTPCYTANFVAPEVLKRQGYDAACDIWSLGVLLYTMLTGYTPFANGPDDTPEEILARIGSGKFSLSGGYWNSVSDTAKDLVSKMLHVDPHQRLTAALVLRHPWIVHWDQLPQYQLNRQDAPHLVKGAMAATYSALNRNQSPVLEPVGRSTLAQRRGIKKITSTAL
# [2] = test system: SGK1 (human), O00141 [S422D]
# STK3 (human) = STK3 (human) (UniProt Q13188)
# Chain of STK3 (human) (Q13188 whole entry, looked up): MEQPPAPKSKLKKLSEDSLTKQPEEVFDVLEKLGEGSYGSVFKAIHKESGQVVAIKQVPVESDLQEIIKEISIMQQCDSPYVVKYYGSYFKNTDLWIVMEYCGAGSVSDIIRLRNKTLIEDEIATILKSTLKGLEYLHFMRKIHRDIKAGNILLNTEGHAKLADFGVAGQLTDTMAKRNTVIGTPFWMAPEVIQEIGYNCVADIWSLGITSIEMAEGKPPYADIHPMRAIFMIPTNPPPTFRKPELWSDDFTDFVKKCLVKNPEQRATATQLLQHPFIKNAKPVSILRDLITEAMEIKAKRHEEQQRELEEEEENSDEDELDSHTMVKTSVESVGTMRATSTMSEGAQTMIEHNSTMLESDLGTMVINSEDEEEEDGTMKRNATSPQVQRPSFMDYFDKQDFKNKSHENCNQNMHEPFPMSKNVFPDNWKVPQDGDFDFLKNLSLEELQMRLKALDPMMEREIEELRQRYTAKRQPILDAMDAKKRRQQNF
# SYK (human) = SYK (human) (UniProt P43405)
# TAOK1 (human) = TAOK1 (human) (UniProt Q7L7X3)
# ULK2 (human) = ULK2 (human) (UniProt Q8IYT8)
# YES1 (human) = YES1 (human) (UniProt P07947); details: compound 10.0 µM
# ZAP70 (human) = ZAP70 (human) (UniProt P43403)
compound,measurement,setting,value
CNc1nc(Nc2ccc(C(=O)N3CCOCC3)cc2OC)ncc1Cl,residual activity,ABL1 (human); compound 1.0 µM,84%
same,residual activity,ABL1 (human); compound 10.0 µM,86%
same,residual activity,BRSK1 (human); compound 1.0 µM,59%
same,residual activity,BRSK1 (human); compound 10.0 µM,78%
same,residual activity,CAMKK2 (human); compound 1.0 µM,52%
same,residual activity,CAMKK2 (human); compound 10.0 µM,31%
same,residual activity,CHEK2 (human); compound 1.0 µM,52%
same,residual activity,CHEK2 (human); compound 10.0 µM,96%
same,residual activity,EIF2AK3 (human); compound 1.0 µM,99%
same,residual activity,EIF2AK3 (human); compound 10.0 µM,97%
same,residual activity,EPHB2 (human); compound 1.0 µM,105%
same,residual activity,EPHB2 (human); compound 10.0 µM,103%
same,residual activity,ERBB4 (human); compound 1.0 µM,89%
same,residual activity,ERBB4 (human); compound 10.0 µM,94%
same,residual activity,GSK3B (human); compound 1.0 µM,100%
same,residual activity,GSK3B (human); compound 10.0 µM,98%
same,residual activity,IRAK1 (human); compound 1.0 µM,84%
same,residual activity,IRAK1 (human); compound 10.0 µM,83%
same,residual activity,LCK (mouse); compound 1.0 µM,92%
same,residual activity,LCK (mouse); compound 10.0 µM,95%
same,residual activity,MAP2K1 (human); compound 1.0 µM,106%
same,residual activity,MAP2K1 (human); compound 10.0 µM,93%
same,residual activity,MAP4K3 (human),94%
same,residual activity,MAP4K5 (human); compound 1.0 µM,83%
same,residual activity,MAP4K5 (human); compound 10.0 µM,82%
same,residual activity,MAPK1 (human); compound 1.0 µM,79%
same,residual activity,MAPK1 (human); compound 10.0 µM,69%
same,residual activity,MAPK8 (human); compound 1.0 µM,89%
same,residual activity,MAPK8 (human); compound 10.0 µM,37%
same,residual activity,MAPKAPK5 (human); compound 1.0 µM,91%
same,residual activity,MAPKAPK5 (human); compound 10.0 µM,44%
same,residual activity,MARK4 (human); compound 1.0 µM,82%
same,residual activity,MARK4 (human); compound 10.0 µM,72%
same,residual activity,MST4 (human); compound 1.0 µM,101%
same,residual activity,MST4 (human); compound 10.0 µM,106%
same,residual activity,[1]; compound 1.0 µM,97%
same,residual activity,[1]; compound 10.0 µM,105%
same,residual activity,PHKG1 (human); compound 1.0 µM,68%
same,residual activity,PHKG1 (human); compound 10.0 µM,23%
same,residual activity,PIM1 (human); compound 1.0 µM,96%
same,residual activity,PIM1 (human); compound 10.0 µM,99%
same,residual activity,PIM2 (human); compound 1.0 µM,94%
same,residual activity,PIM2 (human); compound 10.0 µM,97%
same,residual activity,PRKAA1 or PRKAA2 (rat),89%
same,residual activity,RPS6KA1 KD1 KD2 (human); compound 1.0 µM,87%
same,residual activity,RPS6KA1 KD1 KD2 (human); compound 10.0 µM,54%
same,residual activity,RPS6KA3 KD1 KD2 (human); compound 1.0 µM,92%
same,residual activity,RPS6KA3 KD1 KD2 (human); compound 10.0 µM,65%
same,residual activity,[2]; compound 1.0 µM,94%
same,residual activity,[2]; compound 10.0 µM,91%
same,residual activity,STK3 (human); compound 1.0 µM,85%
same,residual activity,STK3 (human); compound 10.0 µM,73%
same,residual activity,SYK (human); compound 1.0 µM,68%
same,residual activity,SYK (human); compound 10.0 µM,85%
same,residual activity,TAOK1 (human); compound 1.0 µM,81%
same,residual activity,TAOK1 (human); compound 10.0 µM,93%
same,residual activity,ULK2 (human); compound 1.0 µM,97%
same,residual activity,ULK2 (human); compound 10.0 µM,84%
same,residual activity,YES1 (human),90%
same,residual activity,ZAP70 (human); compound 1.0 µM,97%
same,residual activity,ZAP70 (human); compound 10.0 µM,81%

# Reference: the kinase profiling compilation of Christmann-Franck et al. (2016)
